Experimental findings from patent US11761894B2, “Silicon-rhodamine fluorescent probe containing hydrophobic group and use thereof” (AJOU UNIVERSITY INDUSTRY—ACADEMIC COOPERATION FOUNDATION, priority 2019, dated 2023) are described below.

Series [1] relates to HeLa, Hep3B, HepG2 and Raw 264.7 cells. Put plainly: Cytotoxicity test (mitochondrial respiration viability assay, CellTiter 96 Aqueous One). The series is classed as cell-based, human; mouse. The conditions noted are these: up to the 24 hr time point, moderate dose (less than 1 μM). On the procedure:
HeLa, Hep3B, HepG2 and Raw 264.7 cells were incubated with SiR-Mito 8, concentration range from 0.25 μM to 10 μM, for 1, 4, 12, and 24 h. Viability of the cells was normalized by DMSO control.
In order to use SiR-Mito 8 as a potential NIR fluorescent tracer for mitochondrial staining, cytotoxicity of the probes was evaluated. HeLa, Hep3B, HepG2 and Raw 264.7 cells were incubated with SiR-Mito 8 at various concentrations (from 0.25 to 10.0 μM) and cytotoxicity was measured by a mitochondrial respiration viability assay.
Specifically, HeLa human cervical cancer cells, Hep3B and HepG2 human hepatocellular carcinoma cells, and Raw264.7 mouse macrophage cells were seeded into 96-well cell culture plates per well and allowed to adhere to the plates overnight. The cells were incubated with cell culture media containing each concentration of SiR-Mito 8 (0.25 μM to 10 μM) for 1, 4, 12 or 24 h. After incubation, CellTiter 96® Aqueous One Solution Cell Proliferation Assay (Promega) was added into each well. After 2 h, 490 nm absorption was measured with Cytation 3 microplate reader (BioTek). Cytotoxicity of SiR-Mito 8 was tested in triplicate in a single experiment, with each experiment being repeated at least three times.

The next series relates to Hep3B cells. The series is described as follows: Co-staining with Hoechst and Lysotracker Red in Hep3B cells. Type of series: cell-based, human. The conditions noted are these: 1 μM, 1 h. The protocol:
Liver cancer Hep3B cells were incubated with Hoechst (0.01 μg/ml), Lysotracker red (1 μM), and SiR-Mito 8 (1 μM) for 1 h. After washing 3 times with fresh media, fluorescence live cell images were acquired with a LEICA DMi8 microscope (Left). […] Scale bar: 50 μm.
To verify the mitochondrial specificity of the SiR-Mito 8 probe, Hep3B human cancer cells were co-stained with a nuclear and a lysosomal tracer, in addition to SiR-Mito 8.
To this end, 6.0×10^4 human HCC cell line Hep3B cells were seeded on confocal dish and incubated for 2 days. After 2 days, Hep3B cells were incubated with Hoechst, 1 μM Lysotracker Red, and 1 μM SiR-Mito 8 contained media for 1 h. After the incubation, Hep3B cells were washed with cell culture media for three times and observed with inverted fluorescence microscope (DMi8, LEICA).

Another series relates to HeLa, and Hep3B cells. The series is described as follows: High-resolution live cell imaging of SiR-Mito 8 with MitoTracker green. Type of series: cell-based, human. The conditions noted are these: 1 μM, 60 min. On the procedure:
(§1) (a) HeLa and Hep3B cells were incubated with MitoTracker Green (0.5 μM), and SiR-Mito 8 (1 μM) for 1 h. After washing 3 times with fresh media, fluorescent live cell images were acquired with LEICA DMi8 microscope. (MitoTracker green: FITC channel, SiR-Mito 8: Cy 5 channel, Scale bar: 15 μm); (b) Chang liver cells expressing mitochondrial YFP were incubated with SiR-Mito 8 (1 μM) for 1 h. After washing 3 times with fresh media, fluorescent live cell images were acquired with LEICA DMi8 microscope. (Mitochondrial-YFP: Rhodamine channel, Scale bar: 15 μm).
Mitochondrial specificity in live cells labeled with SiR-Mito 8 and MitoTracker green was examined by high-resolution imaging.
To this end, HeLa, and Hep3B cells were cultured in Dulbecco's modified eagle media (DMEM, GIBCO) containing 10% fetal bovine serum (FBS, GIBCO) and 1% penicillin (GIBCO) at 37° C. in a humidified incubator with 5% CO2. For the fluorescence microscope imaging, cells were harvested using TrypLE™ Express (GIBCO) and resuspended in fresh culture medium. Harvested cells were seeded on a confocal dish with a density of 4.0×10^4 cells/well. After 24 h incubation, cells were incubated with SiR-Mito 8 (1 μM) and Mitotracker green (0.5 uM) for 60 min. Cells were washed three times with 1×PBS and observed with inverted fluorescence microscope (DMi8, LEICA).

For series [2], the system named is Mitochondria-YFP Chang liver cells. Put plainly: Mitochondrial targeting efficiency in Chang liver cells expressing mitochondrial YFP. The series is classed as cell-based, human. Conditions: 1 μM, 60 min. The protocol: as §1
The mitochondrial targeting efficiency of SiR-Mito 8 in live cells was examined by high-resolution imaging.
To this end, Overexpression plasmid for Mitochondria-YFP was obtained from Catholic University (Seoul, Korea) and transfected into Chang liver cells. Stable clones expressing Mitochondria-YFP was selected using 0.25 mg/ml G418. Next, Mitochondria-YFP infected Chang liver cells were cultured in Dulbecco's modified eagle media (DMEM, GIBCO) containing 10% fetal bovine serum (FBS, GIBCO) and 1% penicillin (GIBCO) at 37° C. in a humidified incubator with 5% CO2. For the fluorescence microscope imaging, cells were harvested using TrypLE™ Express (GIBCO) and resuspended in fresh culture medium. […] Cells were washed three times with 1×PBS and observed with inverted fluorescence microscope (DMi8, LEICA).

Series [3] in a line: Photophysical properties (excitation/emission wavelength, absolute quantum yield, fluorescence intensity in PBS). The series is classed as physicochemical. On the procedure: All reactions were carried out under an atmosphere of nitrogen or argon in air-dried glassware with magnetic stirring. Air- and/or moisture-sensitive liquids were transferred with syringe. Organic solutions were concentrated by rotary evaporation at 25-60° C. at 15-30 torr. All solvents and common materials were purchased from suppliers and used without further purification. Column chromatography was carried out as “Flash Chromatography” using Biotage MPLC machine. ^1H NMR and ^13C NMR data were recorded on an JEOL ECZ-600R Magnetic Resonance System (600 MHz) in Ajou University. Recorded shifts are reported in parts per million (6): Chemical shift, multiplicity (s=singlet, d=doublet, t=triplet, q=quartet, m=multiplet, br=broad), coupling constant (J, Hz) and integration. Low resolution mass spectrometry (LRMS) was obtained by LC/MS system, Finnigan MSQplus Surveyer (Thermo Scientific) or 6120 Quadrupole LC/MS (Agilent Technologies). The progress of reaction was monitored using thin layer chromatography (TLC) (silica gel 60, F254 0.25 mm), and components were visualized by observation under UV light (254 and 365 nm) or by treating the TLC plates with Phosphonolybdic acid (PMA), KMnO4, or ninhydrin followed by heating. Cell culture reagents including fatal bovine serum, culture media, and antibiotic-antimycotic solution were purchased from GIBCO. MitoTracker Green, and Hoechst were purchased from Invitrogen. The culture dish and glassbottom dish were purchased from CORNING, and SPL. All spectra experiments were performed in a 1×1 cm quartz cuvette. Fluorescence emission spectra were recorded on JASCO FP-8200 spectrofluorometer, and UV absorption spectra were recorded on JASCO V-670 spectrophotometer. Absolute quantum yield was measured by QE-2000 (Otsuka Electronics).

“Also recorded” adds a separate entry of the source.

As for “N-(10-(5-((cyclooctylmethyl) carbamoyl)-2-methylphenyl)-7-(dimethylamino)-5,5-dimethyldibenzo[b,e]silin-3(5H)-ylidene)-N-methylmethanaminium [SiR-Mito 8]”, the Cytotoxicity result in series [1] is “no acute cytotoxicity”. The “Mitochondrial specificity versus lysosome (Lysotracker Red co-staining)” value in the series on Hep3B cells is reported as “high mitochondrial specificity; also recorded: did not localize to other organelle such as lysosome”. Moreover, in the series with HeLa, and Hep3B cells, the “Mitochondrial specificity in live cells (co-expression with MitoTracker green)” value was “highly co-expressed”. The Mitochondrial targeting efficiency entry in series [2] is on record as “high mitochondrial targeting efficiency”. Besides, in series [3], the “Em (emission wavelength)” value amounted to 668 nm and the “Ex (excitation wavelength)” value came out at 651 nm. Further, in series [3] (absolute quantum yield), the “Φ (quantum yield)” value came out at 0.33.
